From patent US11597909B2, “Method for the formation of renal tubules” (LEIBNIZ-INSTITUT FÜR POLYMER-FORSCHUNG DRESDEN E.V., priority 2016, dated 2023)

Tests used:
[1] = tested on: tubule organoids from HK-2 cells; test: Apoptosis by caspase-3 immunocytochemistry in tubule organoids; type: cell-based, human; conditions: incubation with cisplatin, HK-2 tubule organoids
Excerpt: (§1) The present invention can be used as an assay for nephrotoxicity.

[2] = tested on: tubule organoids from HK-2 cells; test: Expression of kidney injury biomarker KIM-1 in tubule structures; type: cell-based, human; conditions: incubation with cisplatin, HK-2 tubule structures
Excerpt: as §1

## N.N.[Cl][Pt][Cl] [cisplatin]
[1]
  apoptosis (cell death), caspase-3 immunocytochemistry: increase in apoptosis
[2]
  expression of kidney injury biomarker KIM 1: expressed the injury-indicating kidney biomarker KIM 1
